Source: patent US20170042104A1, “SUGARCANE PROCESS” (E I DU PONT DE NEMOURS AND COMPANY, priority 2014, published 2017)

Assays:
[1] = Accelerated degradation of cellulosic composites buried in soil; assay type: physicochemical; settings: buried in soil 1 month, 30° C., approximately 50% humidity; confidence interval 95%
Method: Cellulosic pulp was mixed with various materials to study the influence of the materials in the degradation of them in soil. To evaluate the different materials developed with cellulose, an accelerated degradation protocol was developed wherein samples with different compositions were buried in a recipient containing soil, and kept for 1 month in an incubator at 30° C. and approximately 50% humidity, representing field conditions. The cellulose content was measured using thermogravimetric analyses before and after the test to evaluate degradation, indicating cellulose degradation in field.
Different materials were tested, including a residue from the pulp and paper industry containing cellulosic fibers of long and short nature; inorganic fillers, mainly TiO2 and pigments. The final structure contained more than 90% of this cellulose mixture. To this mixture was added polyvinyl alcohol, up to 5% in weight, ionomer of ethylene acid copolymer, up to 5% in weight, used in the packaging industry, cationic starch, up to 5% in weight, more likely 1% to accelerate degradation, while promoting the adherence of the adjacent fibers of cellulose, urea to accelerate the degradation and nutrition of plants up to 10% in weight, more likely 5%, and AKD (alkyl ketene dimer) in a starch solution to serve as moisture barrier by changing the hydrophobicity of cellulose, more likely between 1-10 ppm.

sugarcane plantlet = experiment: Storage of plantlets in Starcla tube seed structures after chemical treatment during regeneration; field survival; assay type: in vivo; settings: for Survival: survival after 5 weeks of growth in field
From the text: The effect of time, temperature, and light on storage of plantlets was studied, in combination with the effect of chemical treatment. Seed structures consisted of 4″ Starcla™ tubes. Tubes were extruded from a resin, such as a blend of polybutylene succinate, polylactic acid, and starch, using a 1½″ Davis Standard-extruder. Tubing was made with ⅝″ I.D. and cut into 4″ length tubes. The seeds were assembled by heating the bottom of the tube and pressing into a crescent shape where there is 2-3 millimeter gap between both sides. Two grams of potting media were added to each tube. One sugarcane plantlet was placed inside the tube structure ensuring the roots were placed in the soil and the shoot remained in the airspace. Two milliliters of water were added to the structure and then the top was prepared by heating and forming a crescent shape with a 2-3 millimeter gap between both sides.
Two types of chemical treatments were used during regeneration. The first treatment was paclobutrazol (paclo), which was introduced into the media for weeks 3 and 4 of plantlet formation. The solution contained 2% sucrose, ½ strength MS, 100 ppm cefotaxime, and 0.75 mg/L paclobutrazol. The second treatment was abscisic acid (ABA) which was introduced the day before the plantlets were removed from regeneration. The ABA treatment solution contained 1 mg/L ABA, 10 g/L sucrose, and MS solution.
The tubes were stored in partially closed zip bags with 25 tubes per unit. After storage the seeds were planted. No irrigation was used during the time the plantlets were growing in the field. The survival rates of the plantlets were measured after 5 weeks of growth.

[2] = test system: regenerable plant tissue (RPT); experiment: Culturing of regenerable plant tissue in media with BAP; assay type: cell-based, sugarcane; settings: BAP present in the culture
From the text: General procedures have been previously outlined (International Publication No. WO 2013/096531, incorporated by reference herein). In summary, half-explants were trimmed of excess stalk tissue, leaving behind the proliferating buds areas. Trimmed tissue was placed into a temporary immersion chamber for liquid culture, or back onto solid media. In the case of temporary immersion, the chamber was placed in a growth chamber, or room, with 30 uE/m2/sec of PAR light, and was hooked to tubing connected to pumps to allow standard immersion cycling. Media (MS+3% sucrose+[…]+3 mg/L paclobutrazol) was changed weekly. Harvest occurred 2-20 weeks after initiation, depending on whether the tissue is grown on solid or liquid media, and the overall mass of the regenerable plant tissue (RPT).
The RPT was subdivided into additional growth chambers or plates as needed. Multiple rounds of growth cycles were possible.

sugarcane = experiment: Plantlet formation with Na silicate added to MS media; field test; assay type: in vivo; settings: 5 mM added to MS media in weeks 3 and 4; observational evidence
Method: Plantlet formation (production of plants with shoots and roots), also called regeneration, was initiated by transferring the RPT to media without hormones. RPT fragments were made using scalpels, chopping tools, or by large scale dicing of material by mechanical means. Fragment size was determined by end usage: RPT fragments for growth in arrays were approximately 1-10 mm cubes, for growth in temporary immersion chambers somewhat larger fragments 5-20 mm were used, or the RPT was left unfragmented. The media used was MS+3% sucrose. Plantlet formation occurred at 26° C. in 60 uE/m2/sec of PAR light (16 hours on and 8 hours off), and if temporary immersion was used media was cycled over the fragments for 1 minute every 2 hours. Media was replaced weekly and was supplemented with 100 ppm carbenicillin, 0.2% PPM (Plant Preservative Mixture™, Plant Cell Technology Inc. Washington, D.C.), and/or 100 ppm cefotaxime as needed. Supplemental carbon dioxide (1500 ppm) was used in some growth cycles, but is not essential. After 3-4 weeks the MS concentration was decreased to ½ strength to encourage rooting, although not required.
The addition of 5 mM Na silicate to the MS media was made in weeks 3 and 4. […] Silicates accumulated in sugarcane tissues conferring anti-predatory, anti-fungal properties. […]

[3] = Conditions N, O: 0 weeks, not stored

## NC(N)=O [urea]
[1]
  Influence on the degradation of cellulosic compounds: high influence

## CC1=CC(=O)CC(C)(C)[C@@]1(O)/C=C/C(C)=C\C(=O)O [ABA, abscisic acid]
Sugarcane plantlet; Condition C: storage 8 weeks, temperature 10, light 5
  Survival: 0%
Sugarcane plantlet; Condition D: storage 8 weeks, temperature 30, light 0
  Survival: 0%
Sugarcane plantlet; Condition G: storage 4 weeks, temperature 10, light 0
  Survival: 0%
Sugarcane plantlet; Condition H: storage 4 weeks, temperature 30, light 200
  Survival: 50%
Sugarcane plantlet; Condition L: storage 2 weeks, temperature 10, light 5
  Survival: 0%
Sugarcane plantlet; Condition M: storage 2 weeks, temperature 30, light 0
  Survival: 0%
Sugarcane plantlet; [3]
  Survival: 12%

## c1ccc(CNc2ncnc3nc[nH]c23)cc1 [BAP, 6-Benzylaminopurine]
[2]
  Root formation: No root formation is detected

## Na silicate
sugarcane
  Growth rate and root production in a field test: improves growth rate and root production

## CC(C)(C)[C@@H](O)[C@@H](Cc1ccc(Cl)cc1)n1cncn1 (racemic) [Paclo, paclobutrazol]
Sugarcane plantlet; Condition A: storage 8 weeks, temperature 10, light 0
  Survival: 0%
Sugarcane plantlet; Condition B: storage 8 weeks, temperature 30, light 200
  Survival: 88%
Sugarcane plantlet; Condition E: storage 4 weeks, temperature 10, light 5
  Survival: 0%
Sugarcane plantlet; Condition F: storage 4 weeks, temperature 30, light 0
  Survival: 0%
Sugarcane plantlet; Condition J: storage 2 weeks, temperature 10, light 0
  Survival: 0%
Sugarcane plantlet; Condition K: storage 2 weeks, temperature 30, light 200
  Survival: 64%
Sugarcane plantlet; [3]
  Survival: 16%
Sugarcane plantlet; storage experiment of Table 3 overall
  Survival rate compared between treatments: higher survival rate than the ABA treatment
